Experimental data published in ChEMBL document CHEMBL1201862, “PubChem BioAssay data set” (2004).
Active and inactive are the calls of the source.

Experiments:
[1] = HEK293 Cytotoxicity Assay Measured in Cell-Based System Using Plate Reader - 7071-01_Inhibitor_Dose_CherryPick_Activity_Set2.; format: functional
[2] = test system: HEK293; experiment: HEK293T cell cytotoxicity, dose response, cytotoxicity control, ATP luminescence, cherry-pick samples (AID 687005); format: functional, cell-based; conditions: Homo sapiens;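 note: cells exposed to compound for 48 hours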
[3] = THP-1 cell cytotoxicity, dose response, cytotoxicity control for Vif-APOBEC3G degradation inhibitor project, THP-1 cells (AID 1117359); format: functional; conditions: Human immunodeficiency virus 1, THP-1
[4] = target: Protein Tat (Human immunodeficiency virus type 1 group M subtype B (isolate HXB2)(HIV-1), UniProt P04608); format: functional;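 note: tat binding to TAR RNA read out by fluorescence polarization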
Protein Tat, sequence (P04608 whole entry): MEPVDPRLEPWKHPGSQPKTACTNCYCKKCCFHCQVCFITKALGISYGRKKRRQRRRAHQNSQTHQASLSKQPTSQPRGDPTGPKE

[5] = target: Melanocortin receptor 4 (Homo sapiens, UniProt P32245); experiment: MC4R antagonist potency on cAMP, dose response, cell-based, TR-FRET, biased antagonists (AID 602298); format: functional;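 note: antagonist potency against agonist-stimulated cAMP production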
Melanocortin receptor 4, sequence (P32245 whole entry): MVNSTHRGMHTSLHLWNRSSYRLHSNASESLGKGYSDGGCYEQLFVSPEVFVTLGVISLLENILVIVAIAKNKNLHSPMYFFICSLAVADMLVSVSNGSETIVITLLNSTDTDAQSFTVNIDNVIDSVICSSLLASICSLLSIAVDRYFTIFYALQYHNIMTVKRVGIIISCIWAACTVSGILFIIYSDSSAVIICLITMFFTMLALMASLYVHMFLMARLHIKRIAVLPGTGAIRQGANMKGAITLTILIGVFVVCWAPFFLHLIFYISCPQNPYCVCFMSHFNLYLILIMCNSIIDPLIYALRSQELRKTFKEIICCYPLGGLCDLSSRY

[6] = C. albicans growth with fluconazole, confirmation, fluorescence, retest (AID 2467); format: functional, cell-based
[7] = nonselective inhibitors of cellular cAMP signaling, dose response, counter-screen for MC4R biased antagonist project, cell-based, TR-FRET cAMP detection (AID 602305); format: functional;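 note: U2OS cells stimulated with forskolin near its EC80 as the cAMP inducer; potency is for inhibition of forskolin-stimulated cAMP signaling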
[8] = NIH-3T3 fibroblast cytotoxicity, dose response, cytotoxicity control, cell-based, fluorescence, Alamar Blue, secondary assay (AID 2327); format: functional;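 note: NIH-3T3 mouse fibroblasts cultured with fluconazole at 8 µg/mL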
[9] = target: Protein-tyrosine kinase 2-beta (Homo sapiens, UniProt Q14289);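 note: potency of inhibitors of PYK2 kinase phosphorylation of poly-GT substrate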
Protein-tyrosine kinase 2-beta, sequence (Q14289 whole entry): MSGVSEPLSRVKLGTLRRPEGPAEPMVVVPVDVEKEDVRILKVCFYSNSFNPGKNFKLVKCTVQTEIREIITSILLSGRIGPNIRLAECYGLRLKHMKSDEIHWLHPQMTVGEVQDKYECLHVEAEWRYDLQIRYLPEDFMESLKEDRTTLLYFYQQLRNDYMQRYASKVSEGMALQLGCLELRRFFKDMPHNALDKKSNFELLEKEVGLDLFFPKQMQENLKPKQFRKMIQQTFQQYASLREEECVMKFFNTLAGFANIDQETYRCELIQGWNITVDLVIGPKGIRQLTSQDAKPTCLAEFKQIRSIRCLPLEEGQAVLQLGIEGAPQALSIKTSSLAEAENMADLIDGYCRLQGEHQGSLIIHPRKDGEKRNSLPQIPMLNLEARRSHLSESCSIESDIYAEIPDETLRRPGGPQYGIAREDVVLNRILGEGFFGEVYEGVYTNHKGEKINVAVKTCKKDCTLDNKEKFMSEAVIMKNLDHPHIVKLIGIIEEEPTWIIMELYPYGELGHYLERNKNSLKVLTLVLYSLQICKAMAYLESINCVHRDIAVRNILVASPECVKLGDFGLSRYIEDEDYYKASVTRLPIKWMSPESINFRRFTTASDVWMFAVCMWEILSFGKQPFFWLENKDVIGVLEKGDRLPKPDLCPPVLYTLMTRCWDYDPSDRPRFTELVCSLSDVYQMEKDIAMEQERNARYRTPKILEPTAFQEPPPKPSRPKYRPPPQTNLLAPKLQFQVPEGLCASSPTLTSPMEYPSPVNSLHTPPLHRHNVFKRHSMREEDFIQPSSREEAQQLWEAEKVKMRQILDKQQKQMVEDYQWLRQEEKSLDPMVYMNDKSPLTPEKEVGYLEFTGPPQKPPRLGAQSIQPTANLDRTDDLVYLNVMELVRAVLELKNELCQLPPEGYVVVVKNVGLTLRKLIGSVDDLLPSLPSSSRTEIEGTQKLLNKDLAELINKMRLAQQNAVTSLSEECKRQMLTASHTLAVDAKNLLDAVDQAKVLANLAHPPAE

[10] = target: Nonstructural protein 1 (Influenza A virus, UniProt Q194T2); format: functional, Influenza A virus (A/California/07/2009(H1N1))
Nonstructural protein 1, sequence (Q194T2 whole entry): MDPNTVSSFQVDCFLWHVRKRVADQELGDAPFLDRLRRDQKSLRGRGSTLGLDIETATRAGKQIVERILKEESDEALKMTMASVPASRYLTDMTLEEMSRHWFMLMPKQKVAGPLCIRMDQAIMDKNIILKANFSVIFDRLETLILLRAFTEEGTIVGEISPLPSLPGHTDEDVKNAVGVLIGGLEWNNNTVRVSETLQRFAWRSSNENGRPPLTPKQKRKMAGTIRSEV

[11] = Luminescence Cell-Based Dose Confirmation to Identify Activators of 5'UTR Stem-Loop Driven Alpha-Synuclein mRNA Translation in H4 Neuroglioblastoma Cells. [Related pubchem assays: 1829 (Project Summary), 1814 (Primary HTS)]; format: functional
[12] = test system: H4; experiment: Luminescence Cell-Based Dose Response HTS to Identify Activators of 5'UTR Stem-Loop Driven Prion Protein mRNA Translation in H4 Neuroglioblastoma Cells. [Related pubchem assays: 1829 (Project Summary), 1814 (Primary HTS)]; format: functional; conditions: Homo sapiens
[13] = Luminescence Cell-Based Dose Response to Identify Activators of Luciferase Translation or Activity in H4-C Neuroglioblastoma Cells. [Related pubchem assays: 1829 (Project Summary), 1814 (Primary HTS)]; format: functional
[14] = Luminescence Cell-Based Dose Response to Identify Activators of 5'UTR Stem-Loop Driven Prion Protein mRNA Translation in H4-C Neuroglioblastoma Cells. [Related pubchem assays: 1829 (Project Summary), 1814 (Primary HTS)]; format: functional
[15] = Luminescence Cell-Based Dose Response HTS to Identify Activators of Luciferase Translation or Activity in H4 […] Cells. [Related pubchem assays: 1829 (Project Summary), 1814 (Primary HTS)]; format: functional
[16] = NIH:OVCAR-3 ovarian cancer cell cytotoxicity, dose response, PAX8 inhibitor project, plate reader, dry powder samples (AID 743044); format: functional, cell-based
[17] = IOSE-T80 ovarian epithelial cell cytotoxicity, dose response, cytotoxicity control for PAX8 inhibitor project, plate reader, dry powder samples (AID 743045); format: functional, cell-based
[18] = non-specific cell cytotoxicity, dose response, cytotoxicity control for PAX8 inhibitor project, plate reader, dry powder samples (AID 743021); format: functional, cell-based
[19] = cytotoxicity in OVCAR8 ovarian cancer cells, dose response, PAX8 project, cell-based, plate reader, dry powder samples (AID 743197); format: functional; conditions: OVCAR-8
[20] = target: Paired box protein Pax-8 (Homo sapiens, UniProt Q06710); experiment: inhibitors of PAX8-driven TPO luciferase reporter, dose response, RMG-I cells, cherry-pick (AID 687027); format: functional, cell-based;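 note: luciferase reporter driven by Pax8 target thyroperoxidase promoter measured by SteadyGlo luminescence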
Paired box protein Pax-8, sequence (Q06710 whole entry): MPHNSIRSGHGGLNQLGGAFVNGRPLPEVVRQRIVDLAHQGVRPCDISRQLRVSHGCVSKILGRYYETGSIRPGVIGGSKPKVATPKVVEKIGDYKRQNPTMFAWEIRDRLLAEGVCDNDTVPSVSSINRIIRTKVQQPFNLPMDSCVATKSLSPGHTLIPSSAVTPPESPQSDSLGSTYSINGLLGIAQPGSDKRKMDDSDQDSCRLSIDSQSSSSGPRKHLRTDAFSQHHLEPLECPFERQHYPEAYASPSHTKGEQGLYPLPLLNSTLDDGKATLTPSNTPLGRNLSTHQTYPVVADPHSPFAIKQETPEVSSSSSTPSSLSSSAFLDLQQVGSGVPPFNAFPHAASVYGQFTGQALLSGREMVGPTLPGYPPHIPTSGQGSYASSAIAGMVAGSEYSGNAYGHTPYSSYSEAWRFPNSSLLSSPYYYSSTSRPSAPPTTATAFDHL

[21] = cytotoxicity in A549 cells, dose response, cytotoxicity control, cell-based, CellTiter-Glo luminescence, cherry-pick (AID 743484); format: functional
[22] = HEK293T cell cytotoxicity, dose response, cytotoxicity control, CellTiter-Glo luminescence, cherry-picked samples, set 4 (AID 743441); format: functional, cell-based; conditions: HEK293
[23] = CEM21 lymphoblast cell cytotoxicity, dose response, cytotoxicity control for viral fusion inhibitor project, CellTiter-Glo luminescence, cherry-picked (AID 652042); format: functional, cell-based;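 note: potency for signal decrease meaning cytotoxicity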
[24] = inhibitors of clade B AD8 Env fusion, dose response, cell-based, cherry-pick (AID 652062); format: functional;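 note: luciferase signal from cell-cell fusion driven by HIV-1 clade B AD8 Env; potency is for inhibitors of fusion seen as a drop in luminescence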
[25] = A549 cell cytotoxicity, dose response, cytotoxicity control, plate reader, cherry-pick, antagonist series (AID 743412); format: functional, cell-based
[26] = LGR2 antagonists, dose response, cell-based, HEK293, CRE-luciferase reporter, cherry pick, set 2 (AID 743343); format: functional;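 note: transfected cells were stimulated with diluted bursicon conditioned medium after compound addition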
[27] = HEK293 cell cytotoxicity, dose response, cytotoxicity control, plate reader, cherry-picked samples (AID 743446); format: functional, cell-based
[28] = MC4R antagonists, dose response, counter-screen for LGR2 antagonist project, cell-based, plate reader, cherry pick (AID 743444); format: functional;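 note: transfected HEK 293 cells stimulated with alpha-MSH peptide; potency of inhibitors of the alpha-MSH evoked signal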
[29] = test system: Streptococcus sp. 'group A'; experiment: growth inhibition of control SK(-) GAS strain, dose response, counter-screen for streptokinase expression inhibitor project, luminescence, kanamycin, BacTiterGlo, confirmation (AID 1900); format: functional, organism-based
[30] = target: T1, Streptokinase A (Streptococcus pyogenes serotype M1, UniProt P10520); experiment: S. pyogenes streptokinase expression inhibitors, potency, dose response, plasminogen activation absorbance, OD405 (AID 1914); format: functional, Streptococcus pyogenes M1 GAS;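 note: secreted streptokinase activity via plasminogen activation per viability signal from cell pellet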
T1 sequence (P10520 whole entry): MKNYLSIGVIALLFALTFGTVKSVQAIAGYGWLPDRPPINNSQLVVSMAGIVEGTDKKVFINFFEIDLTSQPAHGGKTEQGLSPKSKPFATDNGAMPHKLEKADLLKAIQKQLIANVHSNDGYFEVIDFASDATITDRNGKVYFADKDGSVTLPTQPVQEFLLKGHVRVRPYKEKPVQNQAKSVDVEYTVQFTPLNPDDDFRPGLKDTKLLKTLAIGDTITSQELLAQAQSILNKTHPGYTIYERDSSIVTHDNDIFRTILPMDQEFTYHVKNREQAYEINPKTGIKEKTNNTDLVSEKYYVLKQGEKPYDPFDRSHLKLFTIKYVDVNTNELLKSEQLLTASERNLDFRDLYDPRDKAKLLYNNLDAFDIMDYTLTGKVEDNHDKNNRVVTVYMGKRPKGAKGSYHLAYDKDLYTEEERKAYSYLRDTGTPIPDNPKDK

[31] = test system: Streptococcus; experiment: Group A Streptococcus viability loss, dose response, counter-screen for streptokinase expression inhibitor project, luminescence, BacTiterGlo (AID 1915); format: functional, organism-based;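 note: potency for reduction of bacterial viability or growth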
[32] = HepG2 cell cytotoxicity, dose response, cytotoxicity control, plate reader, cherry-pick, antagonist series (AID 743416); format: functional, cell-based
[33] = Luminescence-based counterscreen assay for KLF5 inhibitors: dose response cell-based high throughput screening assay to identify cytotoxic compounds using the IEC-6 intestinal epithelial cell line. [Related pubchem assays: 1700 (Primary screen.), 1834 (Confirmation screen.), 1858 (Summary AID.), 1905 (Counterscreen.)]; format: functional
[34] = Luminescence Cell-Based Dose Confirmation HTS to Identify Inhibitors of Platelet Dense Granule Release. [Related pubchem assays: 1663 (Primary HTS), 1678 (Summary of Project)]; format: functional
[35] = target: Luciferin 4-monooxygenase (Photinus pyralis, UniProt P08659); experiment: firefly luciferase enzyme inhibitors, dose response, biochemical, luminescence (AID 1891)
Luciferin 4-monooxygenase, sequence (P08659 whole entry): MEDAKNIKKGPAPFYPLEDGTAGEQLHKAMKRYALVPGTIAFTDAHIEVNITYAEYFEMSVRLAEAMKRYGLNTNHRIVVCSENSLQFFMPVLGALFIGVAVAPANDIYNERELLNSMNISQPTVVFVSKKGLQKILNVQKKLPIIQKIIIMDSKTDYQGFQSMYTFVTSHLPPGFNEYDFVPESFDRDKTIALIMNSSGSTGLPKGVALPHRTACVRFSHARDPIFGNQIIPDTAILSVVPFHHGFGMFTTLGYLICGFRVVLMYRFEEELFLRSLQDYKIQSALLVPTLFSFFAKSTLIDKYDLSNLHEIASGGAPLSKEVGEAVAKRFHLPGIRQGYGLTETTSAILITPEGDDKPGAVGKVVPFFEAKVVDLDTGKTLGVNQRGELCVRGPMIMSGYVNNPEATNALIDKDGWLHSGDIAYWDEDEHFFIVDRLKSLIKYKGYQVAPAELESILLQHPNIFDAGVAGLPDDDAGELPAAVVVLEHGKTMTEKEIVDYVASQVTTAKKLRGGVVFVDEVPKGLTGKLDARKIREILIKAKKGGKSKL

Cc1ccc(N(CC(=O)NCCSCc2ccco2)S(=O)(=O)c2ccc(F)cc2)cc1
AC50 [1]: 31.9 µM (active) | AC50 [2]: 31.9 µM (active) | CC50 [3]: > 40 µM (active)

COc1ccc(OC)c(N/C(C)=C/C(=O)c2ccc(C)o2)c1
IC50 [4]: > 100 µM (inconclusive)

CCOC(=O)c1cnc2ccc(C)cc2c1Nc1ccc(N2CCOCC2)cc1
IC50 [5]: 19 µM (inactive) | EC50 [6]: 1.75 µM (active) | IC50 [7]: > 64.6 µM (inactive) | EC50 [8]: 41.5 µM (active) | IC50 [9]: 47.7 µM (not active) | IC50 [10]: 30.7 µM (active)

O=C(Nc1cccnc1)c1cc(-c2cc(Cl)ccc2O)n[nH]1
EC50 [11]: 0.439 µM (active) | EC50 [12]: 0.608 µM (active) | EC50 [13]: 0.56 µM (active) | EC50 [14]: > 12 µM (not active) | EC50 [15]: 6.15 µM (active)

C[C@H](CO)N1C[C@H](C)[C@@H](CN(C)S(=O)(=O)c2ccc(Cl)cc2)OCCCC[C@H](C)Oc2ccc(NS(=O)(=O)c3cccs3)cc2C1=O
AC50 [16]: 15 µM (active) | AC50 [17]: 12.7 µM (active) | AC50 [18]: 21.4 µM (active) | AC50 [19]: 24.5 µM (active) | AC50 [20]: 4.18 µM (active)

COc1cc2c(cc1[N+](=O)[O-])-c1ccc([N+](=O)[O-])cc1C2
AC50 [21]: 12.4 µM (active) | AC50 [22]: 26.7 µM (active)

N#C[C@@H]1[C@H](c2ccc(-c3cccc(F)c3)cc2)[C@H](CO)N1C(=O)c1cccnc1
AC50 [23]: 57.4 µM (active) | AC50 [24]: 3.62 µM (active)

CC(C)Oc1ccc(C(=O)Nc2nc3ccccc3[nH]2)cc1
AC50 [25]: 18.8 µM (active) | AC50 [26]: 1.2 µM (active) | AC50 [27]: 16.2 µM (active) | AC50 [28]: 2.16 µM (active) | EC50 [29]: 3.4 µM (active) | EC50 [30]: > 150 µM (not active) | EC50 [31]: 28.6 µM (active) | AC50 [32]: 15.1 µM (active) | IC50 [33]: 17.8 µM (not active)

CN1C(=O)/C(=C/c2cn(CC(=O)N3CCCCC3)c3ccccc23)c2ccccc21
EC50 [34]: > 112 µM (not active) | EC50 [35]: > 112 µM (not active) | IC50 [9]: 46.6 µM (not active)
